Earlier results on one sequence are cited in patent US20250135014A1, “TARGETED LINEAR CONJUGATES COMPRISING POLYETHYLENEIMINE AND POLYETHYLENE GLYCOL AND POLYPLEXES COMPRISING THE SAME” (TARGIMMUNE THERAPEUTICS AG, priority 2021, published 2025).

The term Kd denotes the constant that tells how readily two partners part at equilibrium.

The target of this data set is EGFR (Homo sapiens, UniProt P00533). The following applies: Ruoslahti et al. 2012; Li et al. 2005.

Take YHWYGYTPQNVI [GE-11]: the Kd is 22 nM.
